This is an account of results in patent US20040151618A1, “Method of increasing the conductivity of water and uses therefor” (priority 2002, published 2004).

The subject of data set [1] is mold. Description: Mold in opened cranberry-raspberry drink (Example 6). The data set is classed as cell-based. The note with it: drink with about 1.9% sodium benzoate, three weeks. The protocol:
A commercially available 16 ounce bottle of cranberry-raspberry drink was opened and one ounce of water having a 30% concentrations of sodium benzoate was added to the contents of the bottle. The resulting cranberry-raspberry drink thus had about a 1.9% concentration of sodium benzoate. A second bottle of the same commercially available drink was opened but not treated in any way.

The subject of data set [2] is mold. Description: Mold on cornstarch immersed in solution (Example 3). As to conditions: cornstarch in water with 1% sodium benzoate, four weeks. The data set is classed as cell-based.
Data set [3] has as its system large potted plants having green leaves and red flowers. As to the kind of experiment: Plant growth retarder: large potted plants watered (Example 10). The format is in vivo. The note with it: watered with water with 10% by weight sodium benzoate. An excerpt:
Three large potted plants having green leaves and red flowers, each plant was about 3 feet tall, were utilized for this EXAMPLE. The three plants were aligned adjacent to each other in a sunny area. The large potted plant to the left was watered with tap water and the plants in the center and to the right were watered with water having a 10% concentration by weight of sodium benzoate. Two days after watering these three large potted plants, the plant to the left retained its green leaves and red flowers. However, the large plant in the center and the one to the right had undergone change. […] Four days after watering the plants the large plant in the center and the one to the right had undergone further change. […] The plant to the left retained its green leaves and red flowers.

The subject of data set [4] is growing plant having green leaves and small white flowers. As to the kind of experiment: Plant growth retarder: isolated growing plant sprayed (Example 7). The data set is classed as in vivo. The note with it: sprayed with water with 10% sodium benzoate, after six hours. An excerpt: A growing plant having green leaves and small white flowers was isolated from other plants of the same type. the isolated plant was sprayed with water having a 10% concentration of sodium benzoate. The other plants were not treated.

Data set [5] concerns mold. Description: Mold and odor on treated wet lap pulp (Example 5). The format is cell-based. The note with it: wet lap pulp treated with water with 1% sodium benzoate, almost a year. The text has this:
A like portion of wet lap pulp from the same batch as the above wet lap pulp was not treated (wet lap pulp is moist and contains tap water) but was isolated for observation and comparison.

In data set [6] the test system is potted plants each having green leaves and violet colored flowers. As to the kind of experiment: Plant growth retarder: potted plant watered (Example 8). The data set is classed as in vivo. As to conditions: watered with water with 10% sodium benzoate, after three days. The text has this:
Two similar potted plants each having green leaves and violet colored flowers were obtained for this example. One of the potted plants was watered with tap water and at the same time the other potted plant was watered with water that contained a 10% concentration of sodium benzoate.

Data set [7] relates to mold. As to the kind of experiment: Mold on dry dog food sprayed with solution (Example 4). The note with it: dry dog food sprayed with water with 1% sodium benzoate, three months. The data set is classed as cell-based.
For the next data set, the system named is grass. As to the kind of experiment: Plant growth retarder: patch of grass sprayed (Example 9). The format is in vivo. The note with it: sprayed with water with 10% by weight sodium benzoate, 24 hours. The text has this:
A patch of grass about two feet in diameter was sprayed with water having a 10% concentration by weight of sodium benzoate . At the time that the water having the 10% concentration of sodium benzoate was sprayed on this patch of grass the sprayed patch as well as the surrounding grass areas were green and healthy looking.

The nature of data set [8]: Electrical conductivity of tap water with varying concentrations of sodium benzoate. The data set is classed as physicochemical. The note with it: 10% sodium benzoate plus ingredient that improves adhesion. The protocol: Tests were conducted to measure the electrical conductivity of tap water with varying concentrations of sodium benzoate. In these tests the conductivity has been measured in micromho/cm. One micromho/cm (UMHO/CM) equals one microsiemens/cm (US/CM). In other words a micromho is the same as a microsiemen.
In preparing a 1% solution of applicants solution 37.84 grams of sodium benzoate were dissolved in one gallon of tap water which weighs 3,784 grams. […] The conductivity of the various samples of applicant's invention that were subjected to these tests had conductivities ranging from 635 to 34,500 UMHO/CM. […] For solutions of other strengths, proportional amounts of sodium benzoate were added to a gallon of water. This invention is concerned with concentrations of sodium benzoate in the range of about 0.1% and greater. The current test results have been limited to a maximum concentration of about 10%.

Data set [9] is described as follows: Iron count of applicant after daily drinking of the solution. The data set is classed as in vivo, human. As to conditions: daily drinking of 0.1% solution blended in fruit juice. The text has this: Furthermore, as a result of the higher conductivity of the sodium benzoate solution its electrical resistance is reduced which stabilizes organic colors and prevents their reversion. […] Also, in the pulp and paper industry the brightness of pulp is enhanced which is a result of applicant's solution impeding the deposition of iron. Also, impeding the iron content in drinking water can help to prevent an iron overload problem in humans and animals. Iron overload can result in cellular degradation that is similar to the rusting of a nail. Applicant's sodium benzoate solution can be used to prevent oxygen free radical degradation in humans and animals. Excess iron in human is very dangerous. Human consumption of applicant's solution could prevent hemochromatosis and the need for phlebotomy.

Data set [10] relates to psychrotrophic microorganisms. Description: Count of psychrotrophic microorganisms in minced cod fish fillets stored at 1-2° C. (Plate Count Agar, pour-plate). The format is cell-based. Also noted: Count of psychrotrophic microorganisms in sample with 0.1% Sodium Benzoate solution: unit not given here. The note with it: for Count of psychrotrophic microorganisms in sample with 1% Sodium Benzoate solution: Example 11; for Count of psychrotrophic microorganisms in sample with 0.1% Sodium Benzoate solution: Example 12. The protocol:
Cod fish fillets which were frozen at sea were thawed and minced. The minced fillets were divided into two 200 gram portions. To one portion, 20 milliliters of sterile, deionized water was added (10%) and to the other 20 milliliters of the sodium benzoate solution of this invention containing 1% benzoate was added. Both portions were stirred and then placed at 1-2° C. for storage. Samples were taken 2 hours, 7 days and 14 days after mixing. Counts of psychrothrophic microorganisms was done on Plate Count Agar with 0.5% NaCl added by the pour-plate technique. Plated were incubated at 22° C. for 3 days prior to counting colonies. When a nutrient agar-type medium is incubated, using the streak-plate or pour-plate method, cells are individually separated. In incubation, individual cells reproduce rapidly to generate a visible colony of cells, each colony being a pure sample of a single kind of microorganism.
In the above example, a 1% sodium benzoate solution was used, which is considered to be a stronger than acceptable for a food product, and thus a further tests were performed. In these second tests cod fish fillets which were frozen at sea were thawed and minced. The minced fillets were divided into two 200 gram portions. To one portion, 2 milliliters of sterile, deionized water was added and to the other […] of the sodium benzoate solution of this invention containing 0.1% benzoate was added. As a result in this test the other portion contained only 10% of the amount of benzoate as was in EXAMPLE 11. In other words EXAMPLE 11 was a 1% sodium benzoate solution and EXAMPLE 12 is a 0.1% sodium benzoate solution. Both portions were stirred and then placed at 1-2° C. for storage. Samples were taken 2 hours, 7 days, 14 days and 18 after mixing. Counts of psychrothrophic microorganisms was done on Plate Count Agar with 0.5% NaCI added by the pour-plate technique. Plated were incubated at 22° C. for 3 days prior to counting colonies.

The mark [11] stands for this setting: 0 days at 1-2° Centigrade (sample 2 hours after mixing).

Take `O=C([O-])c1ccccc1.[Na+]` [Sodium Benzoate, sodium benzoate]: the “No Mold” value in the data set on mold [1] is recorded as “no evidence of mold”; in the data set with mold [2], “no evidence of mold”; in the data set with mold [5], “no evidence of mold or odor”; in the data set on mold [7], “no evidence of mold”. Moreover, the “Growth Stunned” value was “remains of the flowers were now brown and only a few brown leaves remained on the branches” in [3] (four days after watering); “shriveled and dried up” in [4]; “weathered and dried up” in data set [6]; “appeared straw like and there was no longer any green appearing” in the data set with grass. In addition, the Appearance of plants result in [3] (two days after watering) is “flowers were no longer red and instead appeared pink and white and the leaves were drooping and were a much lighter shade of green”. For the same compound, in [8], the “Conductivity of 10% solution with coating additive compared with 10% solution without” value is listed as “substantially the same”. In addition, the Iron count entry in data set [9] is given as “reduced to normal levels”. Besides, the “Shelf life of fresh seafood maintained at 1-2° C.” value in [10] (0.1% sodium benzoate solution) and in data set [10] (1% sodium benzoate solution) was “at least 14 days” in each case. For the same compound, the entries for the “Count of psychrotrophic microorganisms in sample with 1% Sodium Benzoate solution” value in [10] (setting [11]), in data set [10] (7 days at 1-2° Centigrade) and in [10] (14 days at 1-2° Centigrade) were 5, 4.8 and 5.2, respectively. Besides, the “Count of psychrotrophic microorganisms in sample with 0.1% Sodium Benzoate solution” value in data set [10] (setting [11]) came out at 4.21; in data set [10] (7 days at 1-2° Centigrade) it was 4.79; in data set [10] (14 days at 1-2° Centigrade), 6.17; in data set [10] (18 days at 1-2° Centigrade), 8.09.
